# Measurements: ChEMBL document CHEMBL1201862, “PubChem BioAssay data set” (2004)
#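 Exposure lasted 48 hours, with cells grown in 96-well plates and compounds tested at five concentrations. GI50: concentration for 50% inhibition of growth.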 Active and inactive are the calls of the source. No stated cut-off is given here; in the data, active = GI50 up to about 1.1 µM and inactive = higher. *1 amine or outer side, *2 acyl side, *3 side chain or, on linkers, in order; H or OH if unused. Where a SMILES comes first, the peptide text is derived from it. Bridges are numbered along the chain shown (N, C = ends). Roman numbers before positions name the chains, in order. [ ]: non-standard residue; d: D form. Actinocin(1to9) = Cc1c2oc3c(C)ccc(C(=O)[*:2])c3nc-2c(C(=O)[*:1])c(N)c1=O; NMeV = CN[CH](C(=O)O)C(C)C; Sar = CNCC(=O)O
# What was measured:
# Assay in all cases: NCI-60 cell line screen, 48 h
# A498 = system: A498
# CAKI-1 = system: CAKI-1
# COLO 205 = system: COLO 205
# HCC 2998 = system: HCC 2998
# HCT-116 = system: HCT-116
# HCT-15 = system: HCT-15
# HOP-62 = system: HOP-62
# HT-29 = system: HT-29
# MOLT-4 = system: MOLT-4
# NCI-H460 = system: NCI-H460
# OVCAR-4 = system: OVCAR-4
# OVCAR-5 = system: OVCAR-5
# OVCAR-8 = system: OVCAR-8
# SF-539 = system: SF-539
# SN12C = system: SN12C
# SNB-19 = system: SNB-19
# SNB-75 = system: SNB-75
# SR = system: SR
# UO-31 = system: UO-31
# HOP-18 = system: HOP-18
Structure (SMILES),GI50 (A498),GI50 (CAKI-1),GI50 (COLO 205),GI50 (HCC 2998),GI50 (HCT-116),GI50 (HCT-15),GI50 (HOP-62),GI50 (HT-29),GI50 (MOLT-4),GI50 (NCI-H460),GI50 (OVCAR-4),GI50 (OVCAR-5),GI50 (OVCAR-8),GI50 (SF-539),GI50 (SN12C),GI50 (SNB-19),GI50 (SNB-75),GI50 (SR),GI50 (UO-31),GI50 (HOP-18)
O=C(O)c1cc2ccc3ccccc3c2oc1=O,54.2 µM (inactive),> 10 µM (inactive),> 100 µM (inactive),> 100 µM (inactive),> 100 µM (inactive),> 100 µM,> 100 µM (inactive),> 100 µM (inactive),> 100 µM (inactive),> 100 µM (inactive),> 100 µM (inactive),> 100 µM (inactive),> 100 µM (inactive),> 100 µM (inactive),> 100 µM (inactive),> 100 µM (inactive),> 100 µM (inactive),> 100 µM (inactive),> 100 µM (inactive),–
COC(=O)c1c(O)ccc2c1c1c(n2C)C(=O)c2ccccc2C1=O,> 100 µM (inactive),7.69 µM (inactive),65.9 µM (inactive),11.3 µM (inactive),12.2 µM (inactive),13.1 µM,14.8 µM (inactive),78.2 µM (inactive),5.78 µM (inactive),8 µM (inactive),13.6 µM (inactive),85.3 µM (inactive),17.8 µM (inactive),17.6 µM (inactive),11.9 µM (inactive),16.3 µM (inactive),2.48 µM (inactive),16.2 µM (inactive),6.75 µM (inactive),–
CC(=O)NC(CC(C)C)C(=O)NC(CC(C)C)C(=O)NC(C=O)CCCNC(=N)N (stereo not given),> 100 µM (inactive),> 100 µM (inactive),> 100 µM (inactive),> 100 µM (inactive),> 100 µM (inactive),> 100 µM,> 100 µM (inactive),> 100 µM (inactive),65 µM (inactive),> 100 µM (inactive),> 100 µM (inactive),> 100 µM (inactive),> 100 µM (inactive),> 100 µM (inactive),> 100 µM (inactive),> 100 µM (inactive),> 100 µM (inactive),> 100 µM (inactive),> 100 µM (inactive),–
COc1ccc(C(=O)C(C(=O)C(=O)Nc2nc3ccc(OC)cc3s2)c2ccc(OC)cc2)cc1 (stereo not given),> 100 µM (inactive),> 100 µM (inactive),> 100 µM (inactive),> 100 µM (inactive),–,> 100 µM,> 100 µM (inactive),> 100 µM (inactive),> 100 µM (inactive),> 100 µM (inactive),> 100 µM (inactive),> 100 µM (inactive),> 100 µM (inactive),> 100 µM (inactive),> 100 µM (inactive),> 100 µM (inactive),26.5 µM (inactive),–,89.5 µM (inactive),90.6 µM (inactive)
CCOC(=O)CCC(NC(=O)Cc1ccc(Nc2nc3ccccc3nc2-c2ccccc2)cc1)C(=O)OCC (stereo not given),37 µM (inactive),> 100 µM (inactive),> 100 µM (inactive),> 100 µM (inactive),> 100 µM (inactive),> 100 µM,6.46 µM (inactive),> 100 µM (inactive),> 100 µM (inactive),> 100 µM (inactive),6.79 µM (inactive),93.8 µM (inactive),25.2 µM (inactive),20 µM (inactive),> 100 µM (inactive),24.2 µM (inactive),8.79 µM (inactive),> 100 µM (inactive),> 100 µM (inactive),–
CC(N)(CC(O)(C(F)(F)Cl)C(F)(F)Cl)C(=O)O (stereo not given),> 10 µM (inactive),> 10 µM (inactive),> 10 µM (inactive),> 10 µM (inactive),> 10 µM (inactive),> 10 µM,> 10 µM (inactive),> 10 µM (inactive),> 10 µM (inactive),> 10 µM (inactive),> 10 µM (inactive),> 10 µM (inactive),> 10 µM (inactive),> 10 µM (inactive),> 10 µM (inactive),> 10 µM (inactive),> 10 µM (inactive),> 10 µM (inactive),> 10 µM (inactive),–
CC(C)NC(=O)OCc1c(COC(=O)NC(C)C)c(-c2cc[n+](COC(=O)C3CC3)cc2)n2c1CCC2,79.3 µM (inactive),> 100 µM (inactive),> 100 µM (inactive),> 100 µM (inactive),> 100 µM (inactive),> 100 µM,> 100 µM (inactive),> 100 µM (inactive),> 100 µM (inactive),> 100 µM (inactive),> 100 µM (inactive),> 100 µM (inactive),> 100 µM (inactive),42.2 µM (inactive),> 100 µM (inactive),> 100 µM (inactive),> 100 µM (inactive),> 100 µM (inactive),> 100 µM (inactive),–
Nc1ccc2c(c1)C(=O)N1CCC[C@H]1C(=O)N2,> 100 µM (inactive),> 100 µM (inactive),> 100 µM (inactive),> 100 µM (inactive),> 100 µM (inactive),> 100 µM,> 100 µM (inactive),> 100 µM (inactive),> 100 µM (inactive),> 100 µM (inactive),> 100 µM (inactive),> 100 µM (inactive),> 100 µM (inactive),> 100 µM (inactive),> 100 µM (inactive),> 100 µM (inactive),> 100 µM (inactive),> 100 µM (inactive),> 100 µM (inactive),–
COc1ccc(N2C(=O)[C@@H](N=[N+]=[N-])[C@@H]2[C@H]2COC(C)(C)O2)cc1,–,> 100 µM (inactive),> 100 µM (inactive),> 100 µM (inactive),> 100 µM (inactive),> 100 µM,> 100 µM (inactive),> 100 µM (inactive),> 100 µM (inactive),> 100 µM (inactive),> 100 µM (inactive),> 100 µM (inactive),> 100 µM (inactive),> 100 µM (inactive),> 100 µM (inactive),> 100 µM (inactive),> 100 µM (inactive),> 100 µM (inactive),> 100 µM (inactive),> 100 µM (inactive)
N#CC(C(=O)CCCC(=O)Nc1ccc(Cl)cc1Cl)c1ccc(Cl)cc1 (stereo not given),–,> 100 µM (inactive),> 100 µM (inactive),> 100 µM (inactive),> 100 µM (inactive),> 100 µM,> 100 µM (inactive),> 100 µM (inactive),> 100 µM (inactive),> 100 µM (inactive),> 100 µM (inactive),> 100 µM (inactive),> 100 µM (inactive),> 100 µM (inactive),> 100 µM (inactive),> 100 µM (inactive),> 100 µM (inactive),> 100 µM (inactive),> 100 µM (inactive),31.7 µM (inactive)
Nc1ccn(CCOC(=O)c2ccccc2)c(=O)n1,> 100 µM (inactive),> 100 µM (inactive),> 100 µM (inactive),–,> 100 µM (inactive),> 100 µM,> 100 µM (inactive),> 100 µM (inactive),–,> 100 µM (inactive),> 100 µM (inactive),> 100 µM (inactive),> 100 µM (inactive),> 100 µM (inactive),> 100 µM (inactive),–,> 100 µM (inactive),–,> 100 µM (inactive),> 100 µM (inactive)
OCCc1cnco1,–,–,> 100 µM (inactive),> 100 µM (inactive),> 100 µM (inactive),–,> 100 µM (inactive),> 100 µM (inactive),> 100 µM (inactive),> 100 µM (inactive),> 100 µM (inactive),–,> 100 µM (inactive),> 100 µM (inactive),> 100 µM (inactive),> 100 µM (inactive),> 100 µM (inactive),–,–,> 100 µM (inactive)
O=C(O)CNc1c2ccccc2[n+]([O-])c2ccccc12,> 100 µM (inactive),> 100 µM (inactive),72.3 µM (inactive),> 100 µM (inactive),44.6 µM (inactive),72.1 µM,> 100 µM (inactive),> 100 µM (inactive),69.3 µM (inactive),> 100 µM (inactive),94.2 µM (inactive),> 100 µM (inactive),78.7 µM (inactive),–,> 100 µM (inactive),> 100 µM (inactive),76.2 µM (inactive),–,43.4 µM (inactive),36.1 µM (inactive)
Cc1cccc(-c2cc(O)c3cc(C)cnc3n2)c1,0.372 µM (active),0.199 µM (active),0.105 µM (active),0.44 µM (active),0.118 µM (active),0.183 µM,0.373 µM (active),0.15 µM (active),0.244 µM (active),0.311 µM (active),1.95 µM (inactive),0.414 µM (active),0.39 µM (active),0.213 µM (active),0.571 µM (active),0.366 µM (active),0.157 µM (active),0.0368 µM (active),0.745 µM (active),–
"CCC(C)C1NC(=O)C(NC(=O)c2c3nc4c(C(=O)NC5C(=O)NC(C(C)C)C(=O)N6CCCC6C(=O)N(C)CC(=O)N(C)C(C(C)C)C(=O)OC5C)ccc(C)c4oc-3c(C)c(=O)c2N)C(C)OC(=O)C(C(C)C)N(C)C(=O)CN(C)C(=O)C2CCCN2C1=O (stereo not given) (I: TIP[Sar][NMeV] / II: TVP[Sar][NMeV]; ester I:1-I:C, II:1-II:C; linker I:N-II:N via Actinocin(1to9); configuration not given here)",0.000197 µM (active),0.00378 µM (active),< 0.0001 µM (active),0.237 µM (active),< 0.0001 µM (active),0.0807 µM,0.000594 µM (active),< 0.0001 µM (active),< 0.0001 µM (active),< 0.0001 µM (active),0.0102 µM (active),0.000586 µM (active),0.000443 µM (active),0.00165 µM (active),0.000388 µM (active),< 0.0001 µM (active),0.00762 µM (active),0.000244 µM (active),0.0787 µM (active),–
